In patent publication US4454123A, “O-xylopyranoside series compounds and methods of use” (Seikagaku Kogyo Co. Ltd., priority 1980, dated 1984):
“Also recorded” adds a separate entry of the source. Where two headings read alike, the source gives them in different places. Each block holds one compound with its values, some of them ahead of it.

How the values were obtained:
[1] = system: Sarcoma-180; assay: Activity against a transplantable cancer, Sarcoma-180 (Test Example 7); type: in vivo, ICR-JCL mice; conditions: Mus musculus, Sarcoma-180, ip, 240 h, 100 mg/kg ip once a day for 10 days; read-out: I.R. (inhibition ratio, Sarcoma-180 tumor weight)
Protocol: Sarcoma-180 cells (1×10^6 cells) were inoculated subcutaneously into the back skin of each of ICR-JCL mice.
Chemotherapy was given intraperitoneally 24 hrs. after inoculation and performed once a day for 10 days. Each specimen to be administered was prepared by dissolving or suspending 30 mg of each compound according to this invention in 1 ml of a physiological saline or in 1 ml of a 0.2% solution of carboxymethylcellulose in a physiological saline, respectively.
All the solutions and the suspensions thus prepared were injected at a volume of 0.1 ml as a single dose (100 mg/Kg).
The inhibition ratio (%) was calculated according to the following equation: […]
wherein T represents the mean weight of the tumor Sarcoma-180 in a tested group of mice; and C represents the mean weight of the tumor in a control group of mice.

[2] = Acute toxicity (LD50) by oral or intraperitoneal administration to ddY mice (Test Example 6); type: in vivo; conditions: mouse, in vivo, 7 days
Protocol: The acute toxicity of the compound according to this invention was determined by forced oral or intraperitoneal administration thereof to ddY mice.
To prepare each specimen to be administered, a predetermined amount of each compound shown in Table 5 was dissolved in a physiological saline or suspended in a 0.2% solution of carboxymethylcellulose in a physiological saline. Each specimen was administered orally to a ddY mouse via its stomach tube or injected intraperitoneally.

[3] = system: synthesis of [35S]glycosaminoglycan in epiphysial cartilages; assay: Recovery in the rate of 35S uptake in cartilage in which glycosaminoglycan synthesis was inhibited by cycloheximide (Test Examples 4, 5); type: cell-based, chick embryos; conditions: for effectiveness as initiator for the synthesis of chondroitin sulfate: 1.0 mM solution in DMSO, in words; for Rate of 35S uptake: cycloheximide 0.3 mM; for 35S uptake as compared with the case where no xylopyranoside was added: 0.02 mM solution in DMSO
Protocol: (§1) Epiphysial cartilages were taken from chick embryos aged 12 days in the Tyrode's medium under ice-cooling, and excess tissues were removed therefrom. To 150 mg. of cartilages corresponding to five embryos, 5 ml. of BGJb [a completely synthetic culture medium prepared according to a recipe of GIBCO (Grand Island Biological Company)] was added, followed by pre-incubation at a temperature of 37° C. After replacing the culture medium, further 1 ml. of BGJb and 5 μCi Na2^35 SO4 were added, and the culture system was kept at 37° C. for 3 hours. The culture medium was then replaced by 1 ml. of a fresh chase medium containing no radio active isotope. After keeping the culture system at 37° C. for 1 hour, the culture medium was separated from the tissues. To study the effects of the xyloside compound on the synthesis of glycosaminoglycan, the xyloside compound was added in the predetermined concentration to the pre-incubation and incubation media.
(§2) After the incubation, the labeled medium containing Na2^35 SO4 was combined with the chase medium. Pronase-P (trade name) (available from Kaken Kagaku Co., Ltd.) was added thereto in a 0.5 M tris-HCl buffer solution (pH 8.0), and the resulting mixture was digested at 50° C. for 16 hours. The digested reaction mixture was then subjected to gel filtration through a column (1.5×14 cm.) packed with Bio-Gel P-2 (available from Bio-Rad Company) using a 0.2 M ammonium formate solution as an eluate. In this way, the Vo fraction was collected and was then freeze-dried to give a crude glycosaminoglycan.
(§3) On the other hand, ice-cold 4 M guanidine hydrochloride was added to the tissues which were previously separated from the culture medium. The resulting mixture was left to stand overnight at a temperature of -20° C., and then homogenized. The obtained homogenate was left to stand overnight at room temperature and centrifuged at a speed of 8,500 rpm to obtain a supernatant. To the obtained liquid, water was added in an amount threefold that of the supernatant. Then, a 95% ethyl alcohol (containing 1.3% of potassium acetate) was added to the resulting mixture in an amount threefold that of the mixture to obtain a precipitate. This procedure was repeated twice, and the combined precipitates were dried in a desiccator. The obtained precipitates were dissolved in a 0.02 M tris-HCl buffer solution (pH 8.0) and digested with Pronase-P in the manner similar to the culture medium described above, thereby obtaining a crude glycosaminoglycan.
(§4) According to the same procedure as in Test example 1, a crude glycosaminoglycan was obtained.
As the xyloside compound, publicly-known methyl 1-thio-β-D-xylopyranoside and n-butyl 1-thio-β-D-xylopyranoside,and six compounds according to the present invention viz. n-heptyl 1-thio-β-D-xylopyranoside, n-nonyl 1-thio-β-D-xylopyranoside, n-decyl 1-thio-β-D-xylopyranoside, n-undecyl […], n-lauryl 1-thio-β-D-xylopyranoside and n-cetyl 1-thio-β-D-xylopyranoside were used. The effects of these compounds on the total amount of [^35 S]glycosaminoglycan synthesized (^35 S uptake amount) were investigated.
That is, after the effect of the addition of DMSO (dimethyl sulfoxide) which is a solvent was investigated, […], thereby inhibiting the synthesis of [^35 S]glycosaminoglycan by around up to 95%. Subsequently, to the medium in which the synthesis of glycosaminoglycan had been inhibited, there was added each solution of the xyloside compound in DMSO having various concentrations to investigate the recovery in the rate of the ^35 S uptake (the relative value expressed by percentage ^35 S uptake relative to the amount of uptake in a control medium to which no xylpyranoside compound was added).
According to the same procedure as in Example 1, a crude glycosaminoglycan was obtained. […]

[4] = system: synthesis of chondroitin sulfate in epiphysial cartilages; assay: Effect of xyloside compounds on synthesis of [35S]glycosaminoglycan (chondroitin sulfate) in epiphysial cartilage culture (Test Examples 1-3); type: cell-based, chick embryos; conditions: for concentration required compared with O-β-D-xylopyranoside compounds / total 35S uptake amount of glycosaminoglycan as the concentration of the xyloside compound rose / effectiveness as initiator for the synthesis of chondroitin sulfate: in words; for total 35S uptake amount of glycosaminoglycan as the concentration of the xyloside compound rose: concentration in culture medium varied; for activity at 1000 µM: Gallus gallus
Protocol: as §1, §2, §3
As the xyloside compound, conventional O-paranitrophenyl-β-D-xylopyranoside, and two compounds according to the present invention viz. C-n-butyl-β-D-xylopyranoside and C-ethyl-β-D-xylopyranoside were used. The effects of these xyloside compounds on the total amount of [^35 S] glycosaminoglycan synthesized (^35 S uptake amount), the amount thereof liberated to the culture medium and the amount thereof remaining in the tissues were as shown in FIGS. 1 to 3.
In each Figure, the vertical axis denotes the amount of [^35 S]chondroitin sulfate (^35 S cpm×10^-4 /μmol.uronic acid) and the horizontal axis denotes the concentration (mM) of each xylopyranoside compound in the culture medium.
as §4
As the xyloside compound, conventional O-paranitrophenyl β-D-xylopyranoside and N-para(sodiumoxycarbonyl)phenyl-D-xylopyranosylamine, and three compounds according to the present invention viz. para(sodiumoxycarbonyl)phenyl β-D-xylopyranoside, C-para(sodiumoxycarbonyl)benzyl-β-D-xylopyranoside and para(sodiumoxycarbonyl)phenyl 1-thio-β-D-xylopyranoside were used. The effects of these xyloside compounds on the total amount of [^35 S]glycosaminoglycan synthesized (^35 S uptake amount) were shown in FIGS. 3 to 7. […]

[5] = ip, intraperitoneal, read-out: LD50 (ip)

Structure (SMILES): CCCCCCC[C@@H]1OC[C@@H](O)[C@H](O)[C@H]1O [C-n-Heptyl-β-D-xylopyranoside]
- inhibition in vivo at 100 mg/kg [1]: 54.8%
- LD50 at 168 h [2, 5]: 1040 mg/kg
- LD50 at 168 h ([2]; po, read-out: LD50 (po)): 4200 mg/kg
- effectiveness as initiator for the synthesis of chondroitin sulfate [3]: extremely effective initiators for the synthesis of chondroitin sulfate
- Rate of 35S uptake ([3]; xyloside 0.2 mM, DMSO 0.1%): 114.0%
- Rate of 35S uptake ([3]; xyloside 0.5 mM, DMSO 0.1%): 183.0%
- Rate of 35S uptake ([3]; xyloside 1.0 mM, DMSO 0.1%): 193.0%

Structure (SMILES): C[C@@H]1C[C@@H]([C@H](O)CC2CC(=O)NC(=O)C2)C(=O)[C@@H](C)C1 [cycloheximide, reference compound]
- inhibition at 30 µM ([3]; Gallus gallus, read-out: inhibition of the synthesis of [35S]glycosaminoglycan): ~95%
- Rate of 35S uptake ([3]; no xyloside, DMSO 0%, relative to control medium): 5.5%
- Rate of 35S uptake ([3]; no xyloside, DMSO 0.1%, relative to control medium): 4.9%
- Rate of 35S uptake ([3]; no xyloside, DMSO 0.2%, relative to control medium): 6.1%
- Rate of 35S uptake ([3]; no xyloside, DMSO 0.5%, relative to control medium): 6.1%
- Rate of 35S uptake ([3]; no xyloside, DMSO 1.0%, relative to control medium): 5.8%

Structure (SMILES): O=C(O)c1ccc(S[C@@H]2OC[C@@H](O)[C@H](O)[C@H]2O)cc1 [Para(lithiumoxycarbonyl)phenyl 1-thio-β-D-xylopyranoside]
- inhibition in vivo at 100 mg/kg [1]: 47.2%
- LD50 at 168 h [2, 5]: 2700 mg/kg
- LD50 at 168 h ([2]; po, read-out: LD50 (po)): 7800 mg/kg

Structure (SMILES): O=C(O)c1ccc(NC2OC[C@@H](O)[C@H](O)[C@H]2O)cc1 (stereo partly drawn) [N-para(sodiumoxycarbonyl)phenyl-D-xylopyranosylamine]
- concentration required compared with O-β-D-xylopyranoside compounds [4]: requires higher concentrations as compared with O-paranitrophenyl-β-D-xylopyranoside
- total 35S uptake amount of glycosaminoglycan as the concentration of the xyloside compound rose [4]: shows a similar tendency; also recorded: does not change remarkably within the range of the concentration of 0 to 20 mM of the compound and that the increase in the total uptake amount thereafter is mild

- 35S uptake as compared with the case where no xylopyranoside was added [3]: around twice
Structure (SMILES): CCCCCCCS[C@@H]1OC[C@@H](O)[C@H](O)[C@H]1O [n-heptyl 1-thio-β-D-xylopyranoside, n-Heptyl 1-thio-β-D-xylopyranoside]

Structure (SMILES): CC(C)CCS[C@@H]1OC[C@@H](O)[C@H](O)[C@H]1O [Isoamyl 1-thio-β-D-xylopyranoside]
- inhibition in vivo at 100 mg/kg [1]: 35.6%
- LD50 at 168 h [2, 5]: 1850 mg/kg
- LD50 at 168 h ([2]; po, read-out: LD50 (po)): 5800 mg/kg

Structure (SMILES): CCCCCC[C@@H]1OC[C@@H](O)[C@H](O)[C@H]1O [C-n-hexyl-β-D-xylopyranoside, C-n-Hexyl-β-D-xylopyranoside]
- effectiveness as initiator for the synthesis of chondroitin sulfate [3]: extremely effective initiators for the synthesis of chondroitin sulfate
- Rate of 35S uptake ([3]; xyloside 0.2 mM, DMSO 0.1%): 82.0%
- Rate of 35S uptake ([3]; xyloside 0.5 mM, DMSO 0.1%): 148.0%
- Rate of 35S uptake ([3]; xyloside 1.0 mM, DMSO 0.1%): 196.0%

Structure (SMILES): NC(=O)c1ccc(NC2OC[C@@H](O)[C@H](O)[C@H]2O)cc1 (stereo partly drawn) [N-carbamoylphenyl-D-xylopyranosylamine, N-Paracarbamoylphenyl-D-xylopyranosylamine]
- concentration required compared with O-β-D-xylopyranoside compounds [4]: requires higher concentration as compared with the O-β-D-xylopyranoside compounds
- effectiveness as initiator for the synthesis of chondroitin sulfate [4]: good initiator for the synthesis of chondroitin sulfate
- total 35S uptake amount of glycosaminoglycan as the concentration of the xyloside compound rose [4]: increased as the concentration of the xyloside compound rose

Structure (SMILES): CC(C)S[C@@H]1OC[C@@H](O)[C@H](O)[C@H]1O [Isopropyl 1-thio-β-D-xylopyranoside]
- inhibition in vivo at 100 mg/kg [1]: 30.4%
- LD50 at 168 h [2, 5]: 2200 mg/kg
- LD50 at 168 h ([2]; po, read-out: LD50 (po)): 6700 mg/kg

Structure (SMILES): O=C(O)c1ccc(C[C@@H]2OC[C@@H](O)[C@H](O)[C@H]2O)cc1 [C-Para(lithiumoxycarbonyl)benzyl-β-D-xylopyranoside]
- inhibition in vivo at 100 mg/kg [1]: 44.7%
- LD50 at 168 h [2, 5]: 2500 mg/kg
- LD50 at 168 h ([2]; po, read-out: LD50 (po)): 8600 mg/kg

Structure (SMILES): O=C(O)c1ccc(O[C@@H]2OC[C@@H](O)[C@H](O)[C@H]2O)cc1 [Para(potassiumoxycarbonyl)phenyl-β-D-xylopyranoside]
- inhibition in vivo at 100 mg/kg [1]: 44.8%
- LD50 at 168 h [2, 5]: 3020 mg/kg
- LD50 at 168 h ([2]; po, read-out: LD50 (po)): 9800 mg/kg

Structure (SMILES): O[C@@H]1[C@@H](O)[C@H](Cc2ccccc2)OC[C@H]1O [C-Benzyl-1-β-D-xylopyranoside, C-Benzyl-β-D-xylopyranoside]
- inhibition in vivo at 100 mg/kg [1]: 30.9%
- LD50 at 168 h [2, 5]: 2400 mg/kg
- LD50 at 168 h ([2]; po, read-out: LD50 (po)): 7200 mg/kg

- 35S uptake as compared with the case where no xylopyranoside was added [3]: around twice
Structure (SMILES): CCCCCCCCS[C@@H]1OC[C@@H](O)[C@H](O)[C@H]1O [n-octyl 1-β-D-xylopyranoside, n-Octyl 1-thio-β-D-xylopyranoside]

- 35S uptake of glycosaminoglycan relative to control ([4]; at 1 mM): 2.35 times that of the control
Structure (SMILES): O=[N+]([O-])c1ccc(O[C@@H]2OC[C@@H](O)[C@H](O)[C@H]2O)cc1 [O-paranitrophenyl-β-D-xylopyranoside]
- activity at 1000 µM ([4]; at 1 mM, read-out: [35S]glycosaminoglycan liberated to the culture medium): 95%
- activity at 1000 µM ([4]; at 1 mM, read-out: [35S]glycosaminoglycan remaining in the tissues): 11%
- 35S uptake of glycosaminoglycan ([4]; at 1 mM): 40800 cpm
- [35S]glycosaminoglycan remaining in the tissues ([4]; at 1 mM): 11 % of the control
- effectiveness as initiator for the synthesis of chondroitin sulfate [4]: extremely effective as an initiator for the synthesis of chondroitin sulfate; also recorded: extremely effective as the initiator for the synthesis of condroitin sulfate
- total 35S uptake amount of glycosaminoglycan as the concentration of the xyloside compound rose [4]: increased
